Results: US5622944A, “Testosterone prodrugs for improved drug delivery” (Affymax Technologies N.V., priority 1995, dated 1997)
Structures can show the parent of a compound that is named as a salt.

Tests used:
in vitro [1] = format: cell-based, human; details: human, dermal fibroblasts, MTT; for CC50 at 2 h: IC50 2 h (cytotoxicity), 2 h incubation; for CC50 at 16 h: IC50 16 h (cytotoxicity), 16 h incubation
Procedure: As discussed above, the chemical modifier, when present in the subject in its free or released form, and in appropriately administered amounts, should preferably be non-toxic. Additionally, any further in vivo degradation products of the chemical modifier should be non-toxic, as well. Table 2 provides in vitro relative cytotoxicity data for a number of testosterone/chemical modifier complexes, prepared in accordance with the invention. The cytotoxicity assessment was carried out by examining the viability of human dermal fibroblasts in the presence of a number of testosterone/chemical modifier complexes in accordance with the present invention. Details of the experimental protocol are summarized in Example 27.
The viability of human dermal fibroblasts in the presence of the 17-hydroxy sterol/chemical modifier compounds was assayed using MTT (3-[4,5-dimethylthiazol-2-yl]-2,5-diphenyltetrazolium bromide) reduction to formazan by mitochondrial enzymes as an indicator of cytotoxicity (Swisher, et al.). Confluent fibroblast cells were incubated for 2 or 16 hours in the presence of increasing concentrations of drug complex. At the end of the incubation period, medium was replaced for 4 hours by medium containing the tetrazolium salt, MTT. Metabolism of MTT to a blue formazan was quantitated by spectrophotometry at 540 nm.

[2] = Water solubility (H2O sol); details: for solubility: H2O sol
[3] = format: in vitro ADME, mouse; details: murine skin, active cells (ETm), 10 mM donor, 100 uA/cm^2, 6 h, 32° C.
Procedure: In vitro electrotransport of testosterone/chemical modifier complexes across hairless mouse skin was evaluated as described in Example 28. The experiments were conducted using modified Valia-Chien cells having 1.0 ml donor and 2.5 ml receptor cells. Anodic transport was carried out using a silver wire-based salt bridge in the donor compartment and a silver chloride cathode in the receptor. Cathodic transport was effected by reversing the electrode configuration. The cells were connected in series and a constant current and temperature were supplied to each cell.
After a predetermined period of time (6 h), aliquots were removed from the receiver phase for immediate analysis by HPLC to determine cumulative flux.
The electrotransport of testosterone/chemical modifier complexes was achieved using modified Valia-Chien cells (1.0 ml donor and 2.5 ml receptor cells). Full thickness, hairless mouse skin (Charles River Labs, Wilmington, Mass.) was soaked for one hour in phosphate buffered saline (PBS, pH=7.4) before placing between each compartment (dermal side of skin facing toward receptor). One passive (P1:data) and two or more (ETm :data) active cells were used to screen each compound.
A 10 mM (1 ml) aqueous solution of testosterone drug/prodrug was placed in the donor (unstirred) compartment and the receptor (stirred) was filled with 2.5 ml of PBS. In order to check for egress due to e.g. damaged skin, a zero hour sample of receptor ([…]) was taken one half hour after the drug solution was placed in the donor compartment. Replacement fluid of equal sample volume was added to the receptor compartment immediately after samples were taken.
Anodic electrotransport was achieved using a silver wire (immersed in a polyvinylalcohol-based salt bridge to minimize junction potential) in the donor compartment and a AgCl cathode in the receptor. […] The electrotransport cells were connected in series and constant current (100 uA/cm^2, […] for a skin area of 0.64 cm^2) and temperature (32° C.) were supplied to each cell. After six hours of active/passive transport, aliquots (200 ul) of the receptor were sampled and immediately analyzed by HPLC.
A standard plot of peak area and concentration for each compound was constructed using HPLC. The peak areas of the samples were determined and the concentrations calculated using the standard data. Cumulative flux was calculated using Quickbasic and reported in nmol/cm^2 /hr.

in vitro [4] = format: in vitro ADME; details: 37° C.; for half-life: human, serum
Procedure: The hydrolytic activity of the sterol prodrug may be evaluated by studies of the chemical or enzymatic conversion of the prodrug to the unmodified parent compound, as described in Example 26.
Generally, the sterol/chemical modifier complex is dissolved in a minimum amount of a suitable solvent, such as ethanol, and the resulting solution is added to a sample of human serum. Following incubation, aliquots are then removed at various time points and analyzed to determine the extent of hydrolysis. Table I herein lists the representative serum half-lives of a number of testosterone prodrugs according to the present invention.
The rates of conversion are readily determined, for example by spectrophotometric methods or by gas-liquid or high performance liquid chromatography. Half-lives and other kinetic parameters may then be calculated using standard techniques.
Determination of Testosterone Prodrug Hydrolysis in Serum
Stock solutions (6 mM) of the testosterone prodrugs were prepared in ethanol (dissolution was accomplished by vortexing, sonication, or warming at 37° C., as needed). If required for dissolution, one drop of a co-solvent such as dimethylsulfoxide, dimethylformamide or methanol was added. (Acetonitrile is undesirable because it deactivates the serum enzymes).
HPLC separation methods were established for each study by dilution of the above stock solutions (6 μl) in acetonitrile (1 ml) to form 36 μM solutions. Samples (10 μl) were injected onto a Nucleosil 5C8 column (250×4 mm ID) fitted with an additional guard column (11×4 mm ID) and eluted with a mobile phase of approximately 65% HPLC grade water and 35% trifluoroacetic acid in acetonitrile (0.1% TFA in acetonitrile). Exact proportions of the mobile phase eluents were adjusted in each case to give optimum separation and run times.
Freshly defrosted human serum (3 ml, Sigma) was warmed at 37° C. for five minutes and then the testosterone prodrug stock solution (60 μl) was added with vortexing. […] The aliquots were added to 800 μl of 2% zinc sulfate solution in a 1.5 ml disposable microcentrifuge tube, vortexed immediately and centrifuged at 14,000 RPM for 3 minutes. The supernatants (10 μl) were injected onto the HPLC and peak areas used to determine the percent of parent drug formed or percent of prodrug remaining. Serum blanks were prepared similarly by addition of serum to the zinc sulfate solution, followed by centrifugation. Initial (time=0) samples were prepared by adding serum to the zinc sulfate solution, followed by addition of the complex and separation by centrifugation. The time=0 samples, as well as the original stock solutions, were also used to assess the stability of the complex in the absence of enzyme. Half-lives were determined using the following equation : […]
and plotting time (x ordinate) versus the natural logarithm of percent remaining prodrug (y ordinate) to obtain the slope (m) and the y intercept (b).

[5] = footnote 1: prodrug remaining, no testosterone formed

Structure (SMILES)	Degradation (Degradation (%/d))	CC50 at 2 h (in vitro [1])	CC50 at 16 h (in vitro [1])	solubility [2]	Flux, active electrotransport (ET) [3]	half-life (in vitro [4]; HPLC)	also measured
C[C@]12CC[C@H]3[C@@H](CCC4=CC(=O)CC[C@@]43C)[C@@H]1CC[C@@H]2O [Code 1.0, 17β-hydroxyandrost-4-en-3-one, reference compound]	0 %/d	> 1000 µM	423 µM	–	–	–	H2O sol [2]: 0.0 mg/mL
CCCCCCCCCCCCCCCC(=O)O[C@H](CC(=O)O[C@H]1CC[C@H]2[C@@H]3CCC4=CC(=O)CC[C@]4(C)[C@H]3CC[C@]12C)C[N+](C)(C)C [Code 1.1, testosterone-17β-(O-palmitoyl-L-carnitinate), chloride salt]	0 %/d	< 10 µM	< 10 µM	26 mg/mL	0 nmol/cm^2 /hr	–	–
CC(=O)OC(CC(=O)O[C@H]1CC[C@H]2[C@@H]3CCC4=CC(=O)CC[C@]4(C)[C@H]3CC[C@]12C)C[N+](C)(C)C (stereo partly shown) [Code 1.2]	0 %/d	91.6 µM	34.4 µM	22 mg/mL	7.3 ± 5.8 nmol/cm^2 /hr	96 h	–
C[C@]12CC[C@H]3[C@@H](CCC4=CC(=O)CC[C@@]43C)[C@@H]1CC[C@@H]2OC(=O)OCOC(=O)CNC(=O)OCOC(=O)CCCCC[N+](C)(C)C [Code 1.8]	–	–	–	–	–	0.0667 h	–
COC(=O)[C@H](COC(=O)O[C@H]1CC[C@H]2[C@@H]3CCC4=CC(=O)CC[C@]4(C)[C@H]3CC[C@]12C)[N+](C)(C)C [Code 1.9, testosterone-17β-(N,N,N-trimethyl-L-serine methyl ester) carbonate, tetrafluoroborate salt]	–	–	–	–	–	~0.00125 h	–
COC(=O)[C@H](COC(=O)O[C@H]1CC[C@H]2[C@@H]3CCC4=CC(=O)CC[C@]4(C)[C@H]3CC[C@]12C)[N+](C)(C)C [Code 2.0, testosterone-17β-(N,N,N-trimethyl-L-serine methyl ester) carbonate, bromide salt]	–	–	–	–	–	–	Serum half-life (in vitro [4]; human serum, HPLC): 5 s
C[C@]12CC[C@H]3[C@@H](CCC4=CC(=O)CC[C@@]43C)[C@@H]1CC[C@@H]2OC(=O)OCOC(=O)CC[N+](C)(C)C [Code 2.1, testosterone-17β-(N,N,N-trimethyl-β-alaninyloxymethyl)carbonate,iodide salt]	–	–	–	–	–	0.0106 h	–
C[C@]12CC[C@H]3[C@@H](CCC4=CC(=O)CC[C@@]43C)[C@@H]1CC[C@@H]2OC(=O)C[N+](C)(C)C [Code 2.2, testosterone-17β-betainoyl ester, bromide salt]	0 %/d	2300 µM	650 µM	10 mg/mL	7.9 ± 4.1 nmol/cm^2 /hr	14 h	–
C[C@]12CC[C@H]3[C@@H](CCC4=CC(=O)CC[C@@]43C)[C@@H]1CC[C@@H]2OC(=O)CCC[N+](C)(C)C [Code 2.3]	0 %/d	653 µM	172 µM	20 mg/mL	2.0 ± 0.8 nmol/cm^2 /hr	–	half-life (in vitro [4]; [5]): ~15 h
C[C@]12CC[C@H]3[C@@H](CCC4=CC(=O)CC[C@@]43C)[C@@H]1CC[C@@H]2OC(=O)c1cccnc1 [Code 2.7, Testosterone-17β-nicotinate]	–	> 1000 µM	> 1000 µM	–	–	~840 h	H2O sol [2]: 0.0 mg/mL
CN(C)CCCC(=O)O[C@H]1CC[C@H]2[C@@H]3CCC4=CC(=O)CC[C@]4(C)[C@H]3CC[C@]12C [Code 3.0]	–	–	–	–	–	–	half-life (in vitro [4]; footnote 2: prodrug remaining, ~50% testosterone and ~50% unknown formed): 106 h
CN(C)CCCC(=O)O[C@H]1CC[C@H]2[C@@H]3CCC4=CC(=O)CC[C@]4(C)[C@H]3CC[C@]12C [Code 3.1, testosterone-17β-[4-N,N-dimethylaminobutyrate], hydrochloride salt]	0 %/d	255 µM	145 µM	22 mg/mL	0.7 ± 0.2 nmol/cm^2 /hr	–	–
CN(C)CCc1ccc(OC(=O)O[C@H]2CC[C@H]3[C@@H]4CCC5=CC(=O)CC[C@]5(C)[C@H]4CC[C@]23C)cc1 [Code 3.3, testosterone-17β-hordenine carbonate]	–	–	–	–	–	8.2 h	–
COC(=O)[C@H](COC(=O)O[C@H]1CC[C@H]2[C@@H]3CCC4=CC(=O)CC[C@]4(C)[C@H]3CC[C@]12C)N(C)C [Code 3.5]	–	–	–	–	–	0.783 h	–
C[C@]12CC[C@H]3[C@@H](CCC4=CC(=O)CC[C@@]43C)[C@@H]1CC[C@@H]2OC(=O)c1ccccn1 [Code 3.9, testosterone-17β-picolinate, hydrochloride salt]	–	–	–	–	–	12.2 h	–
C[n+]1ccccc1C(=O)O[C@H]1CC[C@H]2[C@@H]3CCC4=CC(=O)CC[C@]4(C)[C@H]3CC[C@]12C [Code 4.0]	–	330 µM	41.1 µM	0.9 mg/mL	–	–	half-life (in vitro [4]; HSO4^- salt): 1.08 h; half-life (in vitro [4]; iodide (I--) salt): 1.17 h
C[C@]12CC[C@H]3[C@@H](CCC4=CC(=O)CC[C@@]43C)[C@@H]1CC[C@@H]2OC(=O)CCC(=O)NCCS(=O)(=O)O [Code 4.2, testosterone-17β-[taurinesuccinamide ester], triethvlammonium salt]	–	–	–	–	2.8 ± 3.7 nmol/cm^2 /hr	24 h	–
C[C@]12CC[C@H]3[C@@H](CC=C4C=C(OC(=O)CCC[N+](C)(C)C)CC[C@@]43C)[C@@H]1CC[C@@H]2OC(=O)CCC[N+](C)(C)C [Code 4.3, testosterone-3-enol, 17β-ol bis[4-(N,N,N-trimethylammonio)butyrate], dibromide salt]	–	–	–	–	1.0 ± 0.6 nmol/cm^2 /hr	–	half-life (in vitro [4]; footnote 3: prodrug remaining, 60% [2.3] formed, no other products seen): 7.8 h
C[C@]12CC[C@H]3[C@@H](CC=C4C=C(OC(=O)CC[N+](C)(C)C)CC[C@@]43C)[C@@H]1CC[C@@H]2OC(=O)OCC[N+](C)(C)C [Code 4.4, testosterone-3-enol, 17β-ol 3-(N,N,N-trimethyl-β-alanine ester) 17-(choline carbonate), dibromide salt]	–	–	–	–	0.2 ± 0.0 nmol/cm^2 /hr	–	half-life (in vitro [4]; [5]): 0.0383 h
